Active and inactive are the calls of the source. The rule behind the calls is not given here.
Key:
[1] = Inhibition of tubulin assembly
[2] = Inhibition of microtubule disassembly at 10 mg/ml
[3] = Inhibition of microtubule disassembly
[4] = Inhibition of tubulin assembly at 10 mg/ml

IC50 [1] [µM]	Activity [3]	SMILES	further results
69	–	CC(C)=CCC/C(C)=C/C[C@@H]1C[C@]2(CC=C(C)C)C(=O)[C@@](CC=C(C)C)(C(=O)C(C(=O)c3ccc(O)c(O)c3)=C2O)C1(C)C [OBLONGIFOLIN B]	inhibition [2]: 7%
53	inactive	CC(C)=CCC/C(C)=C/C[C@@H]1C[C@@]2(C/C=C(\C)CCC=C(C)C)C(=O)[C@](CC=C(C)C)(C(=O)C(C(=O)c3ccc(O)c(O)c3)=C2O)C1(C)C [GUTTIFERONE B]	–
53	inactive	CC(C)=CCC/C(C)=C/C[C@@H]1C[C@]2(CC=C(C)C)C(=O)[C@@](CC=C(C)C)(C(=O)C(C(=O)c3ccc(O)c(O)c3)=C2O)[C@@]1(C)CCC=C(C)C [OBLONGIFOLIN C]	–
92	inactive	CC(C)=CCC/C(C)=C/C[C@H]1C[C@]2(C/C=C(\C)CCC=C(C)C)C(=O)[C@@](CC=C(C)C)(C(=O)C(C(=O)c3ccc(O)c(O)c3)=C2O)C1(C)C [OBLONGIFOLIN D]	–
–	–	CC(=O)O[C@H]1C(=O)[C@@]2(C)[C@H]([C@H](OC(=O)c3ccccc3)[C@]3(O)C[C@H](OC(=O)[C@H](O)[C@@H](NC(=O)c4ccccc4)c4ccccc4)C(C)=C1C3(C)C)[C@]1(OC(C)=O)CO[C@@H]1C[C@@H]2O [PACLITAXEL]	Activity [1]: inactive; IC50 [3]: 0.5 µM
97	–	C=C(C)[C@@H](CC=C(C)C)C[C@@]12C[C@@H](CC=C(C)C)C(C)(C)[C@@](CC=C(C)C)(C(=O)C(C(=O)c3ccc(O)c(O)c3)=C1O)C2=O [GARCINOL]	inhibition [2]: 46%
–	inactive	CC(C)=CCC/C(C)=C/C[C@H]1C[C@]2(CC=C(C)C)C(=O)[C@@](CC=C(C)C)(C(=O)C(C(=O)c3ccc(O)c(O)c3)=C2O)C1(C)C	inhibition [4]: 41%
